According to patent publication US20040071747A1, “Cosmetics” (priority 2001, published 2004):

Assay: Solubility in water or squalane by visual observation
Assay type: physicochemical
Set-up: key: ∘: Completely dissolved; x: Separated or precipitated without dissolution
Conditions: 25° C.
Procedure: Solubilityies of 1% by weight of components (1) to (5), and those of 0.01% by weight of components (6) and (7) were examined by visual observation of the dissolving states of the components mixed at 25° C. with water or squalane.

SMILES: CCN(Cc1cccc(S(=O)(=O)[O-])c1)c1ccc(C(=C2C=CC(=[N+](CC)Cc3cccc(S(=O)(=O)[O-])c3)C=C2)c2ccccc2S(=O)(=O)[O-])cc1.[Na+].[Na+] [Blue No.1]
- Solubility in Squalane (0.01% by weight): x
- Solubility in Water (0.01% by weight): ∘

SMILES: CC1(C)[C@@H](O[C@H]2O[C@H](C(=O)[O-])[C@@H](O)[C@H](O)[C@H]2O[C@@H]2O[C@H](C(=O)[O-])[C@@H](O)[C@H](O)[C@H]2O)CC[C@]2(C)[C@H]3C(=O)C=C4[C@@H]5C[C@@](C)(C(=O)O)CC[C@]5(C)CC[C@@]4(C)[C@]3(C)CC[C@@H]12.[K+].[K+] [Dipotassium Glycyrrhizinate]
- Solubility in Squalane (1% by weight): x
- Solubility in Water (1% by weight): ∘

SMILES: Cc1ccc(Nc2ccc(O)c3c2C(=O)c2ccccc2C3=O)c(S(=O)(=O)[O-])c1.[Na+] [Purple No.401]
- Solubility in Squalane (0.01% by weight): x
- Solubility in Water (0.01% by weight): ∘
